Experimental data: patent US9512474B2, “Molecular targets and methods for formulation screening and preservative efficacy testing” (LONZA WALKERSVILLE INC., priority 2011, dated 2016)
“And” between values parts separate entries of the source, which are not always exact repeats. Identical values can stand only once.

Tests used:
Format in all cases: cell-based
[1] = tested on: Serratia marcescens; test: Control plate of treated cells (colonies); conditions: 10^6 cells
[2] = tested on: Escherichia coli; test: Control plate of treated cells (colonies); conditions: 10^6 cells
[3] = tested on: Serratia marcescens; test: pre-rRNA RT-PCR viability assay (preservative efficacy testing)
Description: (§1) The specific systems for E. coli, B. subtilis and S. marcescens are designed on the 3′ end of the 16S rRNA transcript. The three systems are species-specific. In these examples, the reverse primer hybridizes on the pre-rRNA region and the forward primer and probe in the mature rRNA region. The amplification will therefore be effective only if pre-rRNAs are present in the cells. FIG. 2 illustrates E. coli, B. subtilis and S. marcescens pre-rRNA-specific systems designed in the 3′ end of the 16S pre-rRNA for use with RT-PCR (forward primer, reverse primer, and forward probe).
(§2) Assays such as those disclosed herein, and assays developed under the guidelines of the provided examples, can be used in Formulation Screening and/or Preservative Efficacy Testing. An exemplary protocol is as follows: non-treated (or viable) and preservative-treated cells are analyzed in parallel with the same procedure and the same reagents: • Cells are calibrated to an expected density (CFU/ml) and collected by centrifugation on a filter membrane. • Two milliliters of RNA Booster (nutrients) are applied to the membrane of the filtration unit and these are incubated two hours for bacteria and four hours for fungi at 35° C.±2° C. (or appropriate temperature). • After incubation, the filtration units are centrifuged to remove the RNA Booster and 1.5 milliliters of lysis buffer are added to each membrane. • Cell lysates are recovered manually by pipetting and transferred into a lysis tube for a mechanical lysis process. • Lysate is then transferred in a sample prep tube. • RNA is extracted and purified using a known nucleic acid isolation method (i.e., RNA magnetic beads, silica resin). • DNA is removed by DNAse treatment to ensure predominantly an RNA target. • Eluted RNA is amplified by RT-PCR. The master mix used for the RT-PCR contains all reagents needed for the RT-PCR including specific primers and probe targeting the pre-rRNA or EF-3 mRNA sequences.
(§3) The referenced guidelines followed for this assay are the European Pharmacopoeia (EP)—Chapter 5.1.3 <<Efficacy of Antimicrobial Preservation>> and the United States Pharmacopeia (USP)—Chapter 51 <<Antimicrobial Effectiveness Testing>>. The value obtained by RT-PCR for the non-treated cells is compared to the value obtained for the treated cells. As used herein Ct stands for threshold cycle; i.e., the intersection between an amplification curve and a threshold line. According to the EP requirements, in a positive result as disclosed herein the difference of the Ct values is at least 3 logs, which corresponds to a ΔCt≧10 for bacteria and at least 2 logs, which corresponds to a ΔCt≧6.6 for fungi, after one day (24 hours) and seven days, respectively, for bacteria and fungi, of preservative treatment. USP requires data analysis after seven days and fourteen days for bacteria and fungi, respectively.
(§4) Preservative treatments were evaluated at high cells concentrations (10^6 and 10^5 cells per assay) that are commonly used for formulation screening. Five replicates at each cell concentration were analyzed. The Ct value corresponds to the RT-PCR cycle for which the level of fluorescence is outside the fluorescence background. The method compares Ct values for non-treated and treated cells and is expressed as the ΔCt.
(§5) The tables set forth below summarize the Ct values obtained for six bacteria and two fungi using six treatments: Heat, Isopropanol, Preservatives BAC, Poly-Q and IPBC and a commercial contact lens solution. Ct values obtained for non-treated cells (viable) are compared to Ct values obtained for treated cells. The ΔCt calculated is reported and must be ≧10 to meet the specification of 3 logs reduction for bacteria and must be ≧6.6 to meet the specification of 2 logs reduction for fungi. All assays are performed on the BD Max6 instrument from Becton Dickinson. Data are obtained by multiple operators on different days.

[4] = tested on: Escherichia coli; test: as above
Description: as §1, §2, §3, §4, §5

[5] = tested on: Staphylococcus aureus; test: Control plate of treated cells (colonies); conditions: 10^6 cells
[6] = tested on: Pseudomonas aeruginosa; test: Control plate of treated cells (colonies); conditions: 10^6 cells
[7] = tested on: Staphylococcus aureus; test: pre-rRNA RT-PCR viability assay (preservative efficacy testing)
Description: (§6) The specific systems for S. aureus, P. aeruginosa and S. epidermidis are designed on the 5′ end of the 23S rRNA. The three systems are species-specific. The forward primer hybridizes in the pre-rRNA region and the reverse primer and the forward probe in the mature rRNA region. The amplification is thus effective only if pre-rRNAs are present in the cells. FIG. 3 illustrates S. aureus, P. aeruginosa and S. epidermidis pre-rRNA-specific systems designed in the 5′ end of the 23S pre-rRNA for use with RT-PCR (forward primer, reverse primer, and forward probe).
as §2, §3, §4, §5

[8] = tested on: Pseudomonas aeruginosa; test: as above
Description: as §6, §2, §3, §4, §5

[9] = tested on: Candida albicans; test: EF-3 mRNA RT-PCR viability assay (preservative efficacy testing); conditions: 10^5 cells
Description: The specific system for C. albicans is designed on the mRNA of the EF-3 gene. This system is species-specific. The forward primer, the forward probe and the reverse primer hybridize in the internal sequence of the mRNA of the EF-3 gene. The amplification is thus effective only if the EF-3 mRNAs are present in the cells. FIG. 5 illustrates C. albicans EF-3 mRNA specific system designed in the internal sequence of the EF-3 mRNA for use with RT-PCR (forward primer, reverse primer, and forward probe).
as §2, §3, §4, §5

[10] = tested on: Candida albicans; test: Control plate of treated cells (colonies); conditions: from day 1 to day 14 at room temperature (day not specified); 10^5 cells
[11] = tested on: Aspergillus brasiliensis; test: Control plate of treated cells (colonies); conditions: from day 1 to day 7 at room temperature (day not specified); 10^6 cells
[12] = tested on: Aspergillus brasiliensis; test: pre-rRNA RT-PCR viability assay (preservative efficacy testing); conditions: 10^6 cells
Description: The specific system for A. brasiliensis is designed on the 5′ end of the 5.8S rRNA. This system is species-specific. The forward primer hybridizes in the pre-rRNA region and the reverse primer and the forward probe in the mature rRNA region. The amplification is thus effective only if pre-rRNAs are present in the cells. FIG. 4 illustrates A. brasiliensis pre-rRNA-specific systems designed in the 5′ end of the 5.8S pre-rRNA for use with RT-PCR (forward primer, reverse primer, and forward probe).
as §2, §3, §4, §5

[13] = 1 H at room temperature, 10^5 cells
[14] = 1 H at room temperature, 10^6 cells
[15] = 24 H at room temperature, 10^5 cells
[16] = 24 H at room temperature, 10^6 cells

CC(C)O [Isopropanol]
Colonies on control plate of treated cells ([1]; 1 H at room temperature): NC = Negative Control - Control plate of treated cells (10^6 cells) shows no colony on plate.
Colonies on control plate of treated cells ([2]; 1 H at room temperature): NC = Negative Control - Control plate of treated cells (10^6 cells) shows no colony on plate.
Ct Treated [3, 13]: 29.10 and 30.70 and 31.00 and 29.90 and 30.30
Mean Ct (Treated) [3, 13]: 30.20
Δ Ct Viable − Dead [3, 13]: 13.20
Ct Treated [3, 14]: 26.90 and 26.20 and 25.90 and 25.40 and 25.50
Mean Ct (Treated) [3, 14]: 25.98
Δ Ct Viable − Dead [3, 14]: 13.18
Ct Treated [4, 13]: 33.02 and 33.36 and 32.52 and 31.38 and 31.93
Mean Ct (Treated) [4, 13]: 32.44
Δ Ct Viable − Dead [4, 13]: 17.56
Ct Treated [4, 14]: 32.91 and 32.51 and 32.31 and 32.98 and 33.93
Mean Ct (Treated) [4, 14]: 32.93
Δ Ct Viable − Dead [4, 14]: 21.00
Colonies on control plate of treated cells ([5]; 1 H at room temperature): NC = Negative Control - Control plate of treated cells (10^6 cells) shows no colony on plate.
Colonies on control plate of treated cells ([6]; 1 H at room temperature): NC = Negative Control - Control plate of treated cells (10^6 cells) shows no colony on plate.
Ct Treated [7, 13]: 29.99 and 29.43 and 29.12 and 29.97 and 29.89
Mean Ct (Treated) [7, 13]: 29.68
Δ Ct Viable − Dead [7, 13]: 12.80
Ct Treated [7, 14]: 26.32 and 26.40 and 25.27 and 24.94 and 26.57
Mean Ct (Treated) [7, 14]: 25.90
Δ Ct Viable − Dead [7, 14]: 13.09
Ct Treated [8, 13]: 34.62 and 34.83 and 34.29 and 33.99 and 38.81
Mean Ct (Treated) [8, 13]: 35.31
Δ Ct Viable − Dead [8, 13]: 10.99
Ct Treated [8, 14]: 34.59 and 33.28 and 33.21 and 34.18 and 33.26
Mean Ct (Treated) [8, 14]: 33.70
Δ Ct Viable − Dead [8, 14]: 13.45

Benzalkonium Chloride [BAC]
Colonies on control plate of treated cells ([1]; 24 H at room temperature): NC = Negative Control - Control plate of treated cells (10^6 cells) shows no colony on plate.
Colonies on control plate of treated cells ([2]; 24 H at room temperature): NC = Negative Control - Control plate of treated cells (10^6 cells) shows no colony on plate.
Ct Treated ([9]; Day 1 at room temperature): 33.70 and 32.70 and 31.60 and 29.30
Mean Ct (Treated) ([9]; Day 1 at room temperature): 32.00
Δ Ct Viable − Dead ([9]; Day 1 at room temperature): 13.90
Mean Ct (Treated) ([9]; Day 7 at room temperature): 33.67
Δ Ct Viable − Dead ([9]; Day 7 at room temperature): 15.57
Mean Ct (Treated) ([9]; Day 14 at room temperature): 32.23
Δ Ct Viable − Dead ([9]; Day 14 at room temperature): 14.13
Mean Ct (Treated) [3, 15]: 36.13
Δ Ct Viable − Dead [3, 15]: 20.09
Ct Treated [3, 16]: 34.20 and 34.30 and 32.80 and 35.50
Mean Ct (Treated) [3, 16]: 34.20
Δ Ct Viable − Dead [3, 16]: 22.28
Ct Treated [4, 15]: 32.65 and 31.54 and 31.77 and 32.76 and 32.45
Mean Ct (Treated) [4, 15]: 32.23
Δ Ct Viable − Dead [4, 15]: 18.57
Ct Treated [4, 16]: 32.61 and 34.26 and 33.74 and 30.48 and 33.39
Mean Ct (Treated) [4, 16]: 32.90
Δ Ct Viable − Dead [4, 16]: 21.33
Colonies on control plate of treated cells ([5]; 24 H at room temperature): NC = Negative Control - Control plate of treated cells (10^6 cells) shows no colony on plate.
Colonies on control plate of treated cells [10]: NC = Negative Control - Control plate of treated cells (10^5 cells) shows no colony on plate.
Colonies on control plate of treated cells ([6]; 24 H at room temperature): NC = Negative Control - Control plate of treated cells (10^6 cells) shows no colony on plate.
Colonies on control plate of treated cells [11]: NC = Negative Control - Control plate of treated cells (10^6 cells) shows no colony on plate.
Ct Treated ([12]; Day 1 at room temperature): 21.80 and 21.60 and 22.10
Mean Ct (Treated) ([12]; Day 1 at room temperature): 21.83
Δ Ct Viable − Dead ([12]; Day 1 at room temperature): 11.63
Ct Treated ([12]; Day 2 at room temperature): 22.40 and 21.90 and 23.90
Mean Ct (Treated) ([12]; Day 2 at room temperature): 22.73
Δ Ct Viable − Dead ([12]; Day 2 at room temperature): 12.53
Ct Treated ([12]; Day 7 at room temperature): 22.60 and 24.70 and 22.50
Mean Ct (Treated) ([12]; Day 7 at room temperature): 23.27
Δ Ct Viable − Dead ([12]; Day 7 at room temperature): 13.07
Ct Treated [7, 15]: 29.75 and 30.23 and 29.39 and 29.28 and 30.03
Mean Ct (Treated) [7, 15]: 29.73
Δ Ct Viable − Dead [7, 15]: 12.29
Ct Treated [7, 16]: 26.23 and 27.50 and 26.54 and 26.71 and 26.64
Mean Ct (Treated) [7, 16]: 26.72
Δ Ct Viable − Dead [7, 16]: 12.65
Mean Ct (Treated) [8, 15]: 31.92
Δ Ct Viable − Dead [8, 15]: 12.39
Mean Ct (Treated) [8, 16]: 30.72
Δ Ct Viable − Dead [8, 16]: 14.53
